For 14 molecules, IC50 results are on record in BindingDB's records for doi:10.1016/s0968-0896(99)00101-7 (Otsuka Pharmaceutical Co., Ltd, 1999).

The target of one assay is Vasopressin V1a receptor (Homo sapiens, UniProt P37288). Put plainly: Radioligand Binding Assay to HeLa Cells. The protocol:
(§1) After reaching confluence in 12-well or 24-well dishes, the cells were washed twice with ice-cold PBS and incubated for 2 hr with [3H]-AVP at 4 deg C. For the competition experiment, test compounds were dissolved in dimethyl sulfoxide, diluted with DMEM medium and added into the wells at several appropriate concentrations. […] The protein content of the lysed cells was determined by the method of Bradford.

Another assay addresses Vasopressin V2 receptor (Homo sapiens, UniProt P30518). In words: Radioligand Binding Assay to HeLa Cells. The conditions noted are these: pH 7.4; 4 °C. The protocol:
as §1

Sequence of Vasopressin V1a receptor (P37288 whole entry): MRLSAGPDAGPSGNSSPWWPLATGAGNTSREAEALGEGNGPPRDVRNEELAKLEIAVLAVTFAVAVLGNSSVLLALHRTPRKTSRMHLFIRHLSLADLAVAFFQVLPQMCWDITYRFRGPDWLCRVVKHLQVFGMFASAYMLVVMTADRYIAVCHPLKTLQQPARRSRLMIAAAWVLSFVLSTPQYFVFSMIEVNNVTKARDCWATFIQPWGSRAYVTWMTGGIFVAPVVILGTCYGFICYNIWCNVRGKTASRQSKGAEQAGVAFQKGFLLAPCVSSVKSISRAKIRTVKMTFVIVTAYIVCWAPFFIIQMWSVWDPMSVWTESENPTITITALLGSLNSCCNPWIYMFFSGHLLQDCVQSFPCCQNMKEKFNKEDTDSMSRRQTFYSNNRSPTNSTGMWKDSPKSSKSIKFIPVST
Sequence of Vasopressin V2 receptor (P30518 whole entry): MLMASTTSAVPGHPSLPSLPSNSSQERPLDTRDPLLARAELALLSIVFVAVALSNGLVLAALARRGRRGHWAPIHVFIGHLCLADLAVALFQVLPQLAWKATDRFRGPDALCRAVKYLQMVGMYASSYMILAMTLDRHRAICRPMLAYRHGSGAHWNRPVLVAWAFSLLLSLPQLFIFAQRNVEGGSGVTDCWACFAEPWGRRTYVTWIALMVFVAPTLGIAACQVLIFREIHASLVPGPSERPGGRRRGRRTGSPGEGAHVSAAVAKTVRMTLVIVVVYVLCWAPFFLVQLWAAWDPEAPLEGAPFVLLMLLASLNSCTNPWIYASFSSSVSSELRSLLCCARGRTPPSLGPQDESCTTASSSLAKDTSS

The term IC50 denotes the concentration that inhibits the measured activity by half. On to `CNC1CCCN(C(=O)c2ccc(NC(=O)c3ccccc3C)cc2)c2ccc(Cl)cc21` (stereo not drawn) [benzazepine derivative, 13a], for which the concentration for half-maximal inhibition (IC50) at Vasopressin V1a receptor (pH 7.4, 4 °C) stood at 64 nM; on Vasopressin V2 receptor, 7 nM.
In the same order, the values of `Cc1ccccc1C(=O)Nc1ccc(C(=O)N2CCCC(N(C)C)c3cc(Cl)ccc32)cc1` (stereo not drawn) [benzazepine derivative, 14] are 190 nM and 25 nM.
For `Cc1ccccc1C(=O)Nc1ccc(C(=O)N2CCCC(N(C)C)c3ccc(Cl)cc32)cc1` (stereo not drawn) [benzazepine derivative, 15], the IC50 at Vasopressin V1a receptor (pH 7.4, 4 °C) worked out at 1200 nM; on Vasopressin V2 receptor, 63 nM.
Take `Cc1ccccc1C(=O)Nc1ccc(C(=O)N2CCCC(N(C)C)c3cccc(Cl)c32)cc1` (stereo not drawn) [benzazepine derivative, 16]: the IC50 was 540 nM on Vasopressin V1a receptor (pH 7.4, 4 °C) and 140 nM at Vasopressin V2 receptor.
For the molecule `Cc1ccccc1C(=O)Nc1ccc(C(=O)N2CCCC(N(C)C)c3c(Cl)cccc32)cc1` (stereo not drawn) [benzazepine derivative, 17], the 50% inhibitory concentration (IC50) at Vasopressin V1a receptor (pH 7.4, 4 °C) came out at 1700 nM; at Vasopressin V2 receptor it was 190 nM.
On to `C=CCNC1CCCN(C(=O)c2ccc(NC(=O)c3ccccc3C)cc2)c2ccc(Cl)cc21` (stereo not drawn) [benzazepine derivative, 18], for which the IC50 on Vasopressin V1a receptor (pH 7.4, 4 °C) was 45 nM; at Vasopressin V2 receptor, 18 nM.
Turning to `C=CCN(C)C1CCCN(C(=O)c2ccc(NC(=O)c3ccccc3C)cc2)c2ccc(Cl)cc21` (stereo not drawn) [benzazepine derivative, 19], the IC50 on Vasopressin V1a receptor (pH 7.4, 4 °C) amounted to 350 nM; on Vasopressin V2 receptor, 97 nM.
For `Cc1ccccc1C(=O)Nc1ccc(C(=O)N2CCCC(O)c3cc(Cl)ccc32)cc1` (stereo not drawn) [benzazepine derivative, 20] the same measures were 17 nM and 3 nM.
In the same order, the values of `COC1CCCN(C(=O)c2ccc(NC(=O)c3ccccc3C)cc2)c2ccc(Cl)cc21` (stereo not drawn) [benzazepine derivative, 21] are 34 nM and 5 nM.
Turning to `C=CCOC1CCCN(C(=O)c2ccc(NC(=O)c3ccccc3C)cc2)c2ccc(Cl)cc21` (stereo not drawn) [benzazepine derivative, 22], the half-inhibitory concentration (IC50) on Vasopressin V1a receptor (pH 7.4, 4 °C) was 53 nM; on Vasopressin V2 receptor it was 9 nM.
For the molecule `Cc1ccccc1C(=O)Nc1ccc(C(=O)N2CCCC(O)c3cc(Cl)ccc32)c(Cl)c1` (stereo not drawn) [benzazepine derivative, 30], the IC50 on Vasopressin V1a receptor (pH 7.4, 4 °C) was determined as 290 nM; on Vasopressin V2 receptor it was 8 nM.
Regarding `Cc1ccccc1C(=O)Nc1ccc(C(=O)N2CCCC(O)c3cc(Cl)ccc32)cc1Cl` (stereo not drawn) [benzazepine derivative, 31], the IC50 on Vasopressin V1a receptor (pH 7.4, 4 °C) was found to be 31 nM; at Vasopressin V2 receptor, 28 nM.
Consider `COc1cc(NC(=O)c2ccccc2C)ccc1C(=O)N1CCCC(O)c2cc(Cl)ccc21` (stereo not drawn) [benzazepine derivative, 33], for which the IC50 came to 39 nM at Vasopressin V1a receptor and 13 nM at Vasopressin V2 receptor.
For the molecule `COc1cc(C(=O)N2CCCC(O)c3cc(Cl)ccc32)ccc1NC(=O)c1ccccc1C` (stereo not drawn) [benzazepine derivative, 34], the half-maximal inhibitory concentration (IC50) on Vasopressin V1a receptor amounted to 7 nM; at Vasopressin V2 receptor, 5 nM.
